This is an account of results in patent US20100092559A1 (OsteoGeneX Inc., priority 2008, published 2010).

One assay deals with C57BL/6 mice. The assay can be described thus: Bone growth in four month old male C57BL/6 mice, daily i.p. for 30 days (uCT, histomorphometry, pQCT). Type of assay: in vivo, mouse. On the procedure: Study endpoints included measurement of trabecular lumbar vertebrae 5 (LVB5) by uCT, showing 65% increase in bone volume over baseline at 75 mg/kg (FIG. 2).
The next assay concerns mouse. As to the kind of experiment: micro-CT bone formation assay in mice for SOST antagonist candidates. The assay is classed as in vivo. The following applies: test vs control solution, complete dosing schedule. The text has this:
Compounds useful in the methods of the present invention can be identified via a variety of methods known to one of skill in the art. Several exemplary methods for identifying such antagonists are described herein, including cell-based and in vitro techniques (Journal of Bone and Mineral Research 2006, 21(11), 1738-1749). A general method of identifying SOST antagonists involves evaluating the effects of antagonist candidates on bone formation under controlled conditions. Preferably bone formation is determined using micro-CT techniques on live animals. Preferred animals include rodents, more preferred are primates. Femur, tibia and vertebrae bones are particularly useful subjects for such study.
Briefly, the test animal is treated with a predetermined dose of a SOST antagonist candidate. […]
Once the dosing schedule has been completed, both test and control animals are examined to determine the quantity of bone formation present. […] Where necessary, levels of bone formation can be calculated by determining the volume of bone formation present in each animal. […]
For example, the mouse test animal is treated with a predetermined dose of a SOST antagonist candidate for a complete dosing schedule. […] Once the dosing schedule has been completed, both test and control animals are examined with sacrifice using micro-CT to determine the quantity of bone formation present.

In the next assay the test system is Wnt pathway. The assay can be described thus: Wnt pathway modulation to promote bone growth (FIG. 1). The following applies: doses of 2.5 ng (low), 60 ng (medium), 125 ng (high).

`COc1cc2c(cc1O)C[C@H]1c3c(cc(O)c(OC)c3-2)CCN1C` [(S)-boldine]: the “increase in BV/TV of femur over baseline controls, pQCT” value in the assay on C57BL/6 mice (60 mg/kg) turned out to be 8%. Also, the “increase in bone volume over baseline, trabecular lumbar vertebrae 5 (LVB5) by uCT” value with C57BL/6 mice (75 mg/kg i.p. daily for 30 days, male C57BL/6 mice, FIG. 2) worked out at 65%. The “increase in BV/TV in trabecular long bone over saline controls, histomorphometry” value with C57BL/6 mice (all animals in both L (0.75 mg/kg) and H (75 mg/kg) groups, i.p. daily 30 days, p=0.05) is given as 78%. For the same molecule, the “bone growth (quantity of bone formation by micro-CT)” value in the assay on mouse is recorded as “promoting bone growth”. Also, in the assay with Wnt pathway, the “modulating the Wnt pathway to promote bone growth” value is “modulating the Wnt pathway to promote bone growth”.
